Experiments:
HepG2 = test: Antiproliferative activity against human HepG2 cells assessed as inhibition of cell proliferation by MTT assay; format: functional, cell-based
[1] = Cytotoxicity against mouse L929 cells assessed as inhibition of cell proliferation by MTT assay; format: toxicity, cell-based
PC-3 = test: Antiproliferative activity against human PC-3 cells assessed as inhibition of cell proliferation by MTT assay; format: functional, cell-based
A549 = test: Antiproliferative activity against human A549 cells assessed as inhibition of cell proliferation by MTT assay; format: functional, cell-based

Row | IC50 (HepG2) | IC50 (PC-3) | IC50 (A549) | SMILES | IC50 [1]
1 | 7.71 µM | 13.3 µM | 7.6 µM | COc1cc(-c2nc(SCC(=O)O[C@H]3CC[C@@]4(C)[C@@H](CC[C@]5(C)[C@H]4C[C@@H](O)[C@@H]4C([C@@]6(C)CCCC(C)(C)O6)CC[C@]45C)C3(C)C)[nH]c(=O)c2C#N)cc(OC)c1OC (stereo partly drawn) | 77.7 µM
2 | 70.5 µM | > 100 µM | 56.6 µM | CC1(C)CCC[C@](C)([C@@H]2CC[C@]3(C)[C@@H]2[C@H](O)C[C@H]2[C@@]4(C)CC[C@H](OC(=O)CSc5nc6ccc(F)cc6c(=O)[nH]5)C(C)(C)[C@@H]4CC[C@]23C)O1 | > 100 µM
3 | 5.95 µM | 6.53 µM | 6.69 µM | CC1(C)CCC[C@](C)([C@@H]2CC[C@]3(C)[C@@H]2[C@H](O)CC2[C@@]4(C)CC[C@H](OC(=O)CSc5nc(-c6cccc(Br)c6)c(C#N)c(=O)[nH]5)C(C)(C)[C@@H]4CC[C@]23C)O1 (stereo partly drawn) | 70.3 µM
4 | 5.09 µM | 9.45 µM | 6.88 µM | COc1ccc(-c2nc(SCC(=O)O[C@H]3CC[C@@]4(C)[C@@H](CC[C@]5(C)[C@H]4C[C@@H](O)[C@@H]4C([C@@]6(C)CCCC(C)(C)O6)CC[C@]45C)C3(C)C)[nH]c(=O)c2C#N)cc1 (stereo partly drawn) | 76.3 µM
5 | 7.09 µM | 8.44 µM | 7.14 µM | CC1(C)CCC[C@](C)([C@@H]2CC[C@]3(C)[C@@H]2[C@H](O)CC2[C@@]4(C)CC[C@H](OC(=O)CSc5nc(-c6cccc(Cl)c6)c(C#N)c(=O)[nH]5)C(C)(C)[C@@H]4CC[C@]23C)O1 (stereo partly drawn) | 74.9 µM
6 | > 100 µM | > 100 µM | > 100 µM | CC1(C)CCC[C@](C)([C@@H]2CC[C@]3(C)[C@@H]2[C@H](O)C[C@H]2[C@@]4(C)CC[C@H](OC(=O)CSc5nc6ccc(Br)cc6c(=O)[nH]5)C(C)(C)[C@@H]4CC[C@]23C)O1 | > 100 µM
7 | 59.8 µM | > 100 µM | > 100 µM | CC1(C)CCC[C@](C)([C@@H]2CC[C@]3(C)[C@@H]2[C@H](O)C[C@H]2[C@@]4(C)CC[C@H](OC(=O)CSc5nc6ccc([N+](=O)[O-])cc6c(=O)[nH]5)C(C)(C)[C@@H]4CC[C@]23C)O1 | > 100 µM
8 | 6.85 µM | 8.98 µM | 6.84 µM | COc1cccc(-c2nc(SCC(=O)O[C@H]3CC[C@]4(C)[C@H]5C[C@@H](O)[C@@H]6[C@H]([C@@]7(C)CCCC(C)(C)O7)CC[C@@]6(C)[C@]5(C)CC[C@H]4C3(C)C)[nH]c(=O)c2C#N)c1 | 64.5 µM
9 | > 100 µM | > 100 µM | > 100 µM | CC1(C)CCC[C@](C)([C@@H]2CC[C@]3(C)[C@@H]2[C@H](O)C[C@H]2[C@@]4(C)CC[C@H](OC(=O)CSc5nc6cc(Cl)ccc6c(=O)[nH]5)C(C)(C)[C@@H]4CC[C@]23C)O1 | > 100 µM
10 | 6.39 µM | 7.42 µM | 6.79 µM | CC1(C)CCC[C@](C)([C@@H]2CC[C@]3(C)[C@@H]2[C@H](O)CC2[C@@]4(C)CC[C@H](OC(=O)CSc5nc(-c6ccc(Cl)cc6)c(C#N)c(=O)[nH]5)C(C)(C)[C@@H]4CC[C@]23C)O1 (stereo partly drawn) | 76.8 µM
11 | 67.8 µM | > 100 µM | 83 µM | CC1(C)CCC[C@](C)([C@@H]2CC[C@]3(C)[C@@H]2[C@H](O)C[C@H]2[C@@]4(C)CC[C@H](OC(=O)CSc5nc6cccc(Cl)c6c(=O)[nH]5)C(C)(C)[C@@H]4CC[C@]23C)O1 | > 100 µM
12 | 12.8 µM | 15.8 µM | 17.3 µM | CC1(C)CCC[C@](C)([C@@H]2CC[C@]3(C)[C@@H]2[C@H](O)C[C@H]2[C@@]4(C)CC[C@H](OC(=O)CSc5nc(-c6ccncc6)c(C#N)c(=O)[nH]5)C(C)(C)[C@@H]4CC[C@]23C)O1 | 77.1 µM
13 | 9.35 µM | 20.8 µM | 14.3 µM | CC1(C)CCC[C@](C)([C@@H]2CC[C@]3(C)[C@@H]2[C@H](O)C[C@H]2[C@@]4(C)CC[C@H](OC(=O)CSc5nc(-c6cccc(O)c6)c(C#N)c(=O)[nH]5)C(C)(C)[C@@H]4CC[C@]23C)O1 | 78.5 µM
14 | 7.56 µM | 8.19 µM | 6.98 µM | CC1(C)CCC[C@](C)([C@@H]2CC[C@]3(C)[C@@H]2[C@H](O)CC2[C@@]4(C)CC[C@H](OC(=O)CSc5nc(-c6cccc(F)c6)c(C#N)c(=O)[nH]5)C(C)(C)[C@@H]4CC[C@]23C)O1 (stereo partly drawn) | 76 µM
15 | 5.91 µM | 9.72 µM | 7.51 µM | CC1(C)CCC[C@](C)([C@@H]2CC[C@]3(C)[C@@H]2[C@H](O)CC2[C@@]4(C)CC[C@H](OC(=O)CSc5nc(-c6ccc(Br)cc6)c(C#N)c(=O)[nH]5)C(C)(C)[C@@H]4CC[C@]23C)O1 (stereo partly drawn) | 77 µM
16 | 5.21 µM | 10.8 µM | 7.17 µM | CC1(C)CCC[C@](C)(C2CC[C@]3(C)[C@@H]2[C@H](O)C[C@H]2[C@@]4(C)CC[C@H](OC(=O)CSc5nc(-c6c[nH]c7ccccc67)c(C#N)c(=O)[nH]5)C(C)(C)[C@@H]4CC[C@]23C)O1 (stereo partly drawn) | 76.1 µM
17 | > 100 µM | 62.3 µM | > 100 µM | CC1(C)CCC[C@](C)([C@@H]2CC[C@]3(C)[C@@H]2[C@H](O)C[C@H]2[C@@]4(C)CC[C@H](OC(=O)CSc5nc6c(Cl)cccc6c(=O)[nH]5)C(C)(C)[C@@H]4CC[C@]23C)O1 | > 100 µM
18 | 7.6 µM | 9.82 µM | 8.9 µM | CC1(C)CCC[C@](C)([C@@H]2CC[C@]3(C)[C@@H]2[C@H](O)C[C@@H]2[C@@]4(C)CC[C@H](OC(=O)CSc5nc(-c6ccccc6)c(C#N)c(=O)[nH]5)C(C)(C)[C@@H]4CC[C@]23C)O1 | 74.7 µM
19 | 7.75 µM | 7.82 µM | 9.09 µM | CC1(C)CCC[C@](C)([C@@H]2CC[C@]3(C)[C@@H]2[C@H](O)CC2[C@@]4(C)CC[C@H](OC(=O)CSc5nc(-c6ccc(F)cc6)c(C#N)c(=O)[nH]5)C(C)(C)[C@@H]4CC[C@]23C)O1 (stereo partly drawn) | 76 µM
20 | > 100 µM | > 100 µM | > 100 µM | Cc1ccc2nc(SCC(=O)O[C@H]3CC[C@@]4(C)[C@@H](CC[C@]5(C)[C@H]4C[C@@H](O)[C@@H]4[C@H]([C@@]6(C)CCCC(C)(C)O6)CC[C@]45C)C3(C)C)[nH]c(=O)c2c1 | > 100 µM
21 | 14.1 µM | 17 µM | 13.6 µM | Cc1cccc(-c2nc(SCC(=O)O[C@H]3CC[C@@]4(C)[C@@H](CC[C@]5(C)[C@H]4C[C@@H](O)[C@@H]4[C@H]([C@@]6(C)CCCC(C)(C)O6)CC[C@]45C)C3(C)C)[nH]c(=O)c2C#N)c1 | 77.1 µM

Row | SMILES | IC50 (HepG2) | IC50 (PC-3) | IC50 (A549) | IC50 [1]
22 | CC1(C)CCC[C@](C)([C@@H]2CC[C@]3(C)[C@@H]2[C@H](O)C[C@H]2[C@@]4(C)CC[C@H](O)C(C)(C)[C@@H]4CC[C@]23C)O1 | 59.2 µM | 68.3 µM | 58.4 µM | > 100 µM

— ChEMBL document CHEMBL5236586, “Novel ginsenoside derivatives induce apoptosis in HepG-2 cells via the MDM2-p53 signaling pathway” (Bioorg Med Chem Lett, 2022)
